Experimental data as given in the supplement of paper PMC10307832.

Assays:
Assay in all cases: relative viability (nuclei count vs DMSO), 5 days (fraction); higher = more cells survive
NCI-H2347 = tested on: NCI-H2347
Outline: (§1)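 Cells from lung cancer lines were seeded into 1536-well plates and, one day later, dosed by pin tool. Treatments were either a single drug or a fixed dose of an anchor drug with five library-drug doses (not always all listed) in √10 steps. After 5 days, nuclei were stained in a one-step fixation (final 0.05% Triton X-100, 1% formaldehyde, 1 ug/ml Hoechst) and counted on 4× images, and relative viability is the treated-to-vehicle nuclei ratio, as the median of duplicate plates.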

LU99A = tested on: LU99A
Outline: as §1

H3255 = tested on: H3255
Outline: as §1

201T = tested on: 201T
Outline: as §1

HCC-44 = tested on: HCC-44
Outline: as §1

LK-2 = tested on: LK-2
Outline: as §1

SW 1573 = tested on: SW 1573
Outline: as §1

A-427 = tested on: A-427
Outline: as §1

NCI-H23 = tested on: NCI-H23
Outline: as §1

NCI-H460 = tested on: NCI-H460
Outline: as §1

NCI-H650 = tested on: NCI-H650
Outline: as §1

## NC(=O)Nc1cc(-c2cccc(F)c2)sc1C(=O)N[C@H]1CCCNC1 [AZD7762] + Nc1ncn([C@H]2C[C@H](O)[C@@H](CO)O2)c(=O)n1 [Decitabine] (partner 2 µM)
NCI-H2347; first compound 0.01 µM
  relative viability: 0.558
NCI-H2347; first compound 0.03162 µM
  relative viability: 0.656
NCI-H2347; first compound 0.1 µM
  relative viability: 0.725
NCI-H2347; first compound 0.3162 µM
  relative viability: 0.79
NCI-H2347; first compound 1 µM
  relative viability: 0.752
LU99A; first compound 0.01 µM
  relative viability: 0.863
LU99A; first compound 0.03162 µM
  relative viability: 0.911
LU99A; first compound 0.1 µM
  relative viability: 0.941
LU99A; first compound 0.3162 µM
  relative viability: 0.958
LU99A; first compound 1 µM
  relative viability: 0.635
H3255; first compound 0.01 µM
  relative viability: 0.528
H3255; first compound 0.03162 µM
  relative viability: 0.708
H3255; first compound 0.1 µM
  relative viability: 0.683
H3255; first compound 0.3162 µM
  relative viability: 0.599
H3255; first compound 1 µM
  relative viability: 0.625
201T; first compound 0.01 µM
  relative viability: 0.831
201T; first compound 0.03162 µM
  relative viability: 0.872
201T; first compound 0.1 µM
  relative viability: 0.903
201T; first compound 0.3162 µM
  relative viability: 0.909
201T; first compound 1 µM
  relative viability: 0.938
HCC-44; first compound 0.01 µM
  relative viability: 0.994
HCC-44; first compound 0.03162 µM
  relative viability: 0.959
HCC-44; first compound 0.1 µM
  relative viability: 1.01
HCC-44; first compound 0.3162 µM
  relative viability: 0.987
HCC-44; first compound 1 µM
  relative viability: 1.08
LK-2; first compound 0.01 µM
  relative viability: 0.476
LK-2; first compound 0.03162 µM
  relative viability: 0.479
LK-2; first compound 0.1 µM
  relative viability: 0.346
LK-2; first compound 0.3162 µM
  relative viability: 0.346
LK-2; first compound 1 µM
  relative viability: 0.25
SW 1573; first compound 0.01 µM
  relative viability: 0.565
SW 1573; first compound 0.03162 µM
  relative viability: 0.523
SW 1573; first compound 0.1 µM
  relative viability: 0.482
SW 1573; first compound 0.3162 µM
  relative viability: 0.324
SW 1573; first compound 1 µM
  relative viability: 0.172
A-427; first compound 0.01 µM
  relative viability: 0.582
A-427; first compound 0.03162 µM
  relative viability: 0.648
A-427; first compound 0.1 µM
  relative viability: 0.633
A-427; first compound 0.3162 µM
  relative viability: 0.554
A-427; first compound 1 µM
  relative viability: 0.314
NCI-H23; first compound 0.01 µM
  relative viability: 0.329
NCI-H23; first compound 0.03162 µM
  relative viability: 0.376
NCI-H23; first compound 0.1 µM
  relative viability: 0.296
NCI-H23; first compound 0.3162 µM
  relative viability: 0.331
NCI-H23; first compound 1 µM
  relative viability: 0.284
NCI-H460; first compound 0.01 µM
  relative viability: 0.657
NCI-H460; first compound 0.03162 µM
  relative viability: 0.488
NCI-H460; first compound 0.1 µM
  relative viability: 0.451
NCI-H460; first compound 0.3162 µM
  relative viability: 0.26
NCI-H460; first compound 1 µM
  relative viability: 0.0798
NCI-H650; first compound 0.01 µM
  relative viability: 0.359
NCI-H650; first compound 0.03162 µM
  relative viability: 0.404
NCI-H650; first compound 0.1 µM
  relative viability: 0.437
NCI-H650; first compound 0.3162 µM
  relative viability: 0.493
NCI-H650; first compound 1 µM
  relative viability: 0.493
